This is an account of results in patent US20260285872A1, “COMPOUNDS AND METHODS FOR DEGRADING GSPT1” (priority 2023, published 2026).

Where two headings read alike, the source gives them in different places. Some results are limits rather than exact numbers.

The test system of one assay is MV-4-11 cells. Put plainly: AML cell viability, CellTiter-Glo, MV-4-11 cells. Format: cell-based. Conditions: Homo sapiens, MV4-11; MV-4-11 cells, CellTiter-Glo, 44 hours of treatment; TABLE 1; read-out: Cell viability classification. The protocol: MV4-11 cells were obtained from ATCC and grown in IMDM supplemented with 10% FBS. The cells were maintained at 37° C. under 5% CO2. […] The luminescence was normalized to that of DMSO-treated samples. IC50 values were obtained using three-parameter non-linear regressions using Prism (GraphPad). […] Cell viability was measured using the CellTiter-Glo reagent after 44 hours of treatment. […] MV4-11 cells were obtained from ATCC and grown in IMDM supplemented with 10% FBS. The cells were maintained at 37° C. under 5% CO2. […] Cell viability was measured using the CellTiter-Glo reagent after 44 hours of treatment.
(In general: ATP-based viability assays read luminescence as a measure of living cells.)

The target in another assay is GSPT1 (Homo sapiens, UniProt P15170+Q96SW2). Nature of the assay: cell-based. Conditions: read-out: GSPT1 degradation classification.
The mark [1] stands for this setting: MV4-11, MV-4-11 cells, 1 μM, 6 hours, Western Blot, % reduction of GSPT1 compared to DMSO, normalized to GAPDH.

Chain of GSPT1 (P15170 whole entry): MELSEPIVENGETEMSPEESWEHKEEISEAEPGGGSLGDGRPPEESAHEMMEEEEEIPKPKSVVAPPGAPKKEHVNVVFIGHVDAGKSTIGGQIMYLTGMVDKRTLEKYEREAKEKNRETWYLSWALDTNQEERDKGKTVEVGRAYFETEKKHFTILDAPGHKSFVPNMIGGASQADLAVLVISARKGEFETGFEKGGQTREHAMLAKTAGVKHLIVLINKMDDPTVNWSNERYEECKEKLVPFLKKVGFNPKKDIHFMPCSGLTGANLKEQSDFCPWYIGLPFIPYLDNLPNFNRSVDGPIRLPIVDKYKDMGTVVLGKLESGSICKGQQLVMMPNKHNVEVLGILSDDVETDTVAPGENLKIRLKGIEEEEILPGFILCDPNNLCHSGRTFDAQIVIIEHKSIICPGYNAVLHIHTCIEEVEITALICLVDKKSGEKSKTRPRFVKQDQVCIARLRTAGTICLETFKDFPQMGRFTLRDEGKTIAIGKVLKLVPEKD
Chain of GSPT1 (Q96SW2 whole entry): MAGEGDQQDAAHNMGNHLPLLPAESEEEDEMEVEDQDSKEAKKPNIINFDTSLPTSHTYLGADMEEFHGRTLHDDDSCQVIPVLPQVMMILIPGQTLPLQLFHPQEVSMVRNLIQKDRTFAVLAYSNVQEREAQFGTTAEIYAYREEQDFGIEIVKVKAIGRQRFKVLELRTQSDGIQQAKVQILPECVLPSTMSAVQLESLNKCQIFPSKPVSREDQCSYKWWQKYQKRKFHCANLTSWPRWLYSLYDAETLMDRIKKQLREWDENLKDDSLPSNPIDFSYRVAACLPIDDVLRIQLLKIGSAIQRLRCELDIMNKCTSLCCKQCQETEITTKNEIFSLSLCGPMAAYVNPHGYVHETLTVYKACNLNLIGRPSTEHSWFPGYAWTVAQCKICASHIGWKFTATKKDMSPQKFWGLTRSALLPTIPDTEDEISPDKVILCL
Chain of GSPT1 (Q16531 whole entry partner): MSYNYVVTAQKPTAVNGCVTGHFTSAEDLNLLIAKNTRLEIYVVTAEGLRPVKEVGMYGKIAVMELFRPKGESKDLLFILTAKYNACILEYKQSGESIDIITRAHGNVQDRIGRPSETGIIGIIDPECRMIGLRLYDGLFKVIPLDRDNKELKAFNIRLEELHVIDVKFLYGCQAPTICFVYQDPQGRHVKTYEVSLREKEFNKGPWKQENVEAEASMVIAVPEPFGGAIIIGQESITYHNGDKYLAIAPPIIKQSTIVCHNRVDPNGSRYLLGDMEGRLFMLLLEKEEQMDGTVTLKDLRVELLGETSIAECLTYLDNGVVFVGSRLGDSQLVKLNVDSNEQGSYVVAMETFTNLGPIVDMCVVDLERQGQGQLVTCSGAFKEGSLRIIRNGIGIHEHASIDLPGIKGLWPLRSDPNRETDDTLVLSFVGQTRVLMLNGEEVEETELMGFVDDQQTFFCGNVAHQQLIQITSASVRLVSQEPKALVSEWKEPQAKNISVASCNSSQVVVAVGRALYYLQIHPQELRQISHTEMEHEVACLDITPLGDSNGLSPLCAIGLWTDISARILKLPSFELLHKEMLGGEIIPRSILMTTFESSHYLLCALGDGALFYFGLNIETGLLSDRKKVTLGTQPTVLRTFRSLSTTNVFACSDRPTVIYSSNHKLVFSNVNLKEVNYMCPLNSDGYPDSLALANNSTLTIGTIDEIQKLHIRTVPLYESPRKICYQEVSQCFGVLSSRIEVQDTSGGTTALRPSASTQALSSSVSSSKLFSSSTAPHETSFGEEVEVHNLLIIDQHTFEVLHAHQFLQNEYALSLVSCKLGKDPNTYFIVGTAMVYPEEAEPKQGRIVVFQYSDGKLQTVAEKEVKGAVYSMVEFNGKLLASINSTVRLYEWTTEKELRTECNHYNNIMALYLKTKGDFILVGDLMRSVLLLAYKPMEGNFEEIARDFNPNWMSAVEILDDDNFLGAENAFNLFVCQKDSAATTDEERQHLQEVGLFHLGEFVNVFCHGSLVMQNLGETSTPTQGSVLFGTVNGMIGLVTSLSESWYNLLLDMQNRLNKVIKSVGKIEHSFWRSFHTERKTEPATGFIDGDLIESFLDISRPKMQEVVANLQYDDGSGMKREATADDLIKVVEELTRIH

As to `O=C1CCC(N2Cc3cc(C(=O)N4CCc5ncccc54)ccc3C2=O)C(=O)N1` (centres unmarked) [Example 28, 3-(5-(2,3-dihydro-1H-pyrrolo[3,2-b]pyridine-1-carbonyl)-1-oxoisoindolin-2-yl)piperidine-2,6-dione], the IC50 with MV-4-11 cells was < 0.1 µM. Also, on GSPT1 (setting [1]), the inhibition at 1 µM is 50 to 75%.

As to `O=C1CCC(N2Cc3cc(C(=O)N4Cc5ccncc5C4)ccc3C2=O)C(=O)N1` (centres unmarked) [Example 31, 3-(5-(2,3-dihydro-1H-pyrrolo[3,4-c]pyridine-2-carbonyl)-1-oxoisoindolin-2-yl)piperidine-2,6-dione], the IC50 in the assay with MV-4-11 cells fell in the range of 0.1 to 1 µM. Besides, the inhibition at 1 µM on GSPT1 (setting [1]) was 50 to 75%.

With `O=C1CCC(N2Cc3cc(C(=O)N4CCc5ccc(F)cc54)ccc3C2=O)C(=O)N1` (centres unmarked) [Example 32, 3-(5-(6-fluoroindoline-1-carbonyl)-1-oxoisoindolin-2-yl)piperidine-2,6-dione], the IC50 with MV-4-11 cells is < 0.1 µM. Besides, the inhibition at 1 µM on GSPT1 (MV4-11, 6 h) is > 75%.

`O=C1CCC(N2Cc3cc(C(=O)N4CCc5cc(Cl)cc(F)c54)ccc3C2=O)C(=O)N1` (centres unmarked) [Example 56, 3-(5-(5-chloro-7-fluoroindoline-1-carbonyl)-1-oxoisoindolin-2-yl)piperidine-2,6-dione]: the IC50 in the assay with MV-4-11 cells lay within 0.1 to 1 µM. Besides, the inhibition at 1 µM at GSPT1 (setting [1]) was in the range of 50 to 75%.

With `O=C1CCC(N2Cc3cc(C(=O)N4CCc5cc(F)cc(F)c54)ccc3C2=O)C(=O)N1` (centres unmarked) [Example 57, 3-(5-(5,7-difluoroindoline-1-carbonyl)-1-oxoisoindolin-2-yl)piperidine-2,6-dione], the IC50 in the assay with MV-4-11 cells is 0.1 to 1 µM. On GSPT1 (MV4-11, 6 h), the inhibition at 1 µM lay in the range of 50 to 75%.

With `O=C1CCC(N2Cc3cc(C(=O)Nc4ccsc4)ccc3C2=O)C(=O)N1` (centres unmarked) [Example 58, 2-(2,6-dioxopiperidin-3-yl)-1-oxo-N-(thiophen-3-yl)isoindoline-5-carboxamide], the IC50 with MV-4-11 cells is < 0.1 µM. The inhibition at 1 µM on GSPT1 (MV4-11, 6 h) was > 75%.

Consider `O=C1CCC(N2Cc3cc(C(=O)Nc4csc5cccnc45)ccc3C2=O)C(=O)N1` (centres unmarked) [Example 59, 2-(2,6-dioxopiperidin-3-yl)-1-oxo-N-(thieno[3,2-b]pyridin-3-yl)isoindoline-5-carboxamide], for which the IC50 in the assay on MV-4-11 cells was < 0.1 µM. For the same molecule, the inhibition at 1 µM at GSPT1 (setting [1]) is > 75%.

For `O=C1CCC(N2Cc3cc(C(=O)Nc4csc5ccncc45)ccc3C2=O)C(=O)N1` (centres unmarked) [Example 60], in the assay with MV-4-11 cells, the IC50 was in the range of 0.1 to 1 µM. Besides, the inhibition at 1 µM at GSPT1 (setting [1]) fell in the range of 50 to 75%.

As to `O=C1CCC(N2Cc3cc(C(=O)Nc4csc5cnccc45)ccc3C2=O)C(=O)N1` (centres unmarked) [Example 61, 2-(2,6-dioxopiperidin-3-yl)-1-oxo-N-(thieno[2,3-c]pyridin-3-yl)isoindoline-5-carboxamide], in the assay on MV-4-11 cells, the IC50 is < 0.1 µM. Besides, on GSPT1 (setting [1]), the inhibition at 1 µM was > 75%.

As for `O=C1CCC(N2Cc3cc(C(=O)Nc4csc5ncccc45)ccc3C2=O)C(=O)N1` (centres unmarked) [Example 62, 2-(2,6-dioxopiperidin-3-yl)-1-oxo-N-(thieno[2,3-b]pyridin-3-yl)isoindoline-5-carboxamide], in the assay with MV-4-11 cells, the IC50 was > 1 µM. For the same molecule, the inhibition at 1 µM at GSPT1 (setting [1]) was < 50%.

In the case of `O=C1CCC(N2Cc3cc(C(=O)N4CCc5c(F)cccc54)ccc3C2=O)C(=O)N1` (centres unmarked) [Example 74, 3-(5-(4-fluoroindoline-1-carbonyl)-1-oxoisoindolin-2-yl)piperidine-2,6-dione], the IC50 with MV-4-11 cells is < 0.1 µM. In addition, the inhibition at 1 µM on GSPT1 (MV4-11, 6 h) is > 75%.

For `O=C1CCC(N2Cc3cc(C(=O)N4CCc5cc(F)ccc54)ccc3C2=O)C(=O)N1` (centres unmarked) [Example 75, 3-(5-(5-fluoroindoline-1-carbonyl)-1-oxoisoindolin-2-yl)piperidine-2,6-dione], the IC50 with MV-4-11 cells was < 0.1 µM. In addition, on GSPT1 (MV4-11, 6 h), the inhibition at 1 µM was > 75%.

For the molecule `O=C1CCC(N2Cc3cc(C(=O)N4CCc5cccc(F)c54)ccc3C2=O)C(=O)N1` (centres unmarked) [Example 76, 3-(5-(7-fluoroindoline-1-carbonyl)-1-oxoisoindolin-2-yl)piperidine-2,6-dione], the IC50 in the assay with MV-4-11 cells fell in the range of 0.1 to 1 µM. Also, the inhibition at 1 µM at GSPT1 (MV4-11, 6 h) is < 50%.

For `O=C1CCC(N2Cc3cc(C(=O)N4CCc5c4cccc5C(F)(F)F)ccc3C2=O)C(=O)N1` (centres unmarked) [Example 77, 3-(1-oxo-5-(4-(trifluoromethyl)indoline-1-carbonyl)isoindolin-2-yl)piperidine-2,6-dione], the IC50 in the assay with MV-4-11 cells was < 0.1 µM. Besides, the inhibition at 1 µM on GSPT1 (MV4-11, 6 h) was > 75%.

As to `O=C1CCC(N2Cc3cc(C(=O)N4CCc5cc(C(F)(F)F)ccc54)ccc3C2=O)C(=O)N1` (centres unmarked) [Example 78, 3-(1-oxo-5-(5-(trifluoromethyl)indoline-1-carbonyl)isoindolin-2-yl)piperidine-2,6-dione], the IC50 in the assay with MV-4-11 cells lay within 0.1 to 1 µM. Further, the inhibition at 1 µM at GSPT1 (MV4-11, 6 h) lay within 50 to 75%.

Take `O=C1CCC(N2Cc3cc(C(=O)N4CCc5ccc(C(F)(F)F)cc54)ccc3C2=O)C(=O)N1` (centres unmarked) [Example 79, 3-(1-oxo-5-(6-(trifluoromethyl)indoline-1-carbonyl)isoindolin-2-yl)piperidine-2,6-dione]: in the assay on MV-4-11 cells, the IC50 was in the range of 0.1 to 1 µM. Also, at GSPT1 (MV4-11, 6 h), the inhibition at 1 µM lay in the range of 50 to 75%.

Take `O=C1CCC(N2Cc3cc(C(=O)N4CCc5cc(OC(F)(F)F)ccc54)ccc3C2=O)C(=O)N1` (centres unmarked) [Example 80, 3-(1-oxo-5-(5-(trifluoromethoxy)indoline-1-carbonyl)isoindolin-2-yl)piperidine-2,6-dione]: the IC50 with MV-4-11 cells lay in the range of 0.1 to 1 µM. For the same molecule, the inhibition at 1 µM on GSPT1 (MV4-11, 6 h) is 50 to 75%.

In the case of `O=C1CCC(N2Cc3cc(C(=O)N4CCc5ccc(OC(F)(F)F)cc54)ccc3C2=O)C(=O)N1` (centres unmarked) [Example 81, 3-(1-oxo-5-(6-(trifluoromethoxy)indoline-1-carbonyl)isoindolin-2-yl)piperidine-2,6-dione], the IC50 with MV-4-11 cells was > 1 µM. Also, the inhibition at 1 µM at GSPT1 (MV4-11, 6 h) was < 50%.

As for `COc1cccc2c1CCN2C(=O)c1ccc2c(c1)CN(C1CCC(=O)NC1=O)C2=O` (centres unmarked) [Example 82, 3-(5-(4-methoxyindoline-1-carbonyl)-1-oxoisoindolin-2-yl)piperidine-2,6-dione], the IC50 with MV-4-11 cells is < 0.1 µM. The inhibition at 1 µM on GSPT1 (setting [1]) lay within 50 to 75%.

With `COc1ccc2c(c1)CCN2C(=O)c1ccc2c(c1)CN(C1CCC(=O)NC1=O)C2=O` (centres unmarked) [Example 83, 3-(5-(5-methoxyindoline-1-carbonyl)-1-oxoisoindolin-2-yl)piperidine-2,6-dione], the IC50 in the assay on MV-4-11 cells was < 0.1 µM. Also, the inhibition at 1 µM on GSPT1 (MV4-11, 6 h) is < 50%.

`COc1ccc2c(c1)N(C(=O)c1ccc3c(c1)CN(C1CCC(=O)NC1=O)C3=O)CC2` (centres unmarked) [Example 84, 3-(5-(6-methoxyindoline-1-carbonyl)-1-oxoisoindolin-2-yl)piperidine-2,6-dione]: the IC50 in the assay with MV-4-11 cells lay in the range of 0.1 to 1 µM. The inhibition at 1 µM on GSPT1 (MV4-11, 6 h) was < 50%.

As for `COc1cccc2c1N(C(=O)c1ccc3c(c1)CN(C1CCC(=O)NC1=O)C3=O)CC2` (centres unmarked) [Example 85, 3-(5-(7-methoxyindoline-1-carbonyl)-1-oxoisoindolin-2-yl)piperidine-2,6-dione], the IC50 in the assay with MV-4-11 cells fell in the range of 0.1 to 1 µM. Further, the inhibition at 1 µM on GSPT1 (setting [1]) was < 50%.
